Reference: patent US9067935B2 (Janssen Pharmaceutica, NV, priority 2010, dated 2015)

Biological target: canine TRPM8 (Canis lupus familiaris, UniProt Q1A7N1)
Assay: In Vitro Canine TRPM8 Functional Assay (intracellular Ca2+ fluorescence, icilin challenge)
Assay type: cell-based
Conditions: HEK293 cells stably expressing canine TRPM8; for inhibition at 0.2 µM: HEK293, @ 0.2 μM, read-out: % Inh (%) @ 0.2 μM; for IC50: icilin at ~80% maximal response
Description: The functional activity of compounds of the formula (I) was determined by measuring changes in intracellular calcium concentration using a Ca^2+-sensitive fluorescent dye. The changes in fluorescent signal were monitored by a fluorescence plate reader, either a FLIPR™ (Molecular Devices) or FDSS (Hamamatsu).
At 24 hrs prior to assay, HEK293 cells stably expressing canine TRPM8 were seeded in culture medium in black wall, clear-base poly-D-lysine coated 384-well plates (BD Biosciences, NJ, USA) and grown overnight in 5% CO2 at 37° C. On assay day, growth media was removed and cells were loaded with Calcium 3 Dye (Molecular Devices) for 35 min at 37° C., under 5% CO2 and then for 25 min at room temperature and atmosphere. Subsequently, cells were tested for agonist-induced increases in intracellular Ca^2+ levels using FLIPR™ or FDSS. Cells were challenged with a compound of the Formula (I) (at varying concentrations) and intracellular Ca^2+ was measured for 5 min prior to the addition of icilin to all wells to achieve a final concentration that produces approximately an 80% maximal response. EC50 or IC50 values for compounds of the present invention were determined from eight-point dose-response studies. Curves were generated using the average of quadruplicate wells for each data point.

canine TRPM8, sequence (Q1A7N1 1-1104): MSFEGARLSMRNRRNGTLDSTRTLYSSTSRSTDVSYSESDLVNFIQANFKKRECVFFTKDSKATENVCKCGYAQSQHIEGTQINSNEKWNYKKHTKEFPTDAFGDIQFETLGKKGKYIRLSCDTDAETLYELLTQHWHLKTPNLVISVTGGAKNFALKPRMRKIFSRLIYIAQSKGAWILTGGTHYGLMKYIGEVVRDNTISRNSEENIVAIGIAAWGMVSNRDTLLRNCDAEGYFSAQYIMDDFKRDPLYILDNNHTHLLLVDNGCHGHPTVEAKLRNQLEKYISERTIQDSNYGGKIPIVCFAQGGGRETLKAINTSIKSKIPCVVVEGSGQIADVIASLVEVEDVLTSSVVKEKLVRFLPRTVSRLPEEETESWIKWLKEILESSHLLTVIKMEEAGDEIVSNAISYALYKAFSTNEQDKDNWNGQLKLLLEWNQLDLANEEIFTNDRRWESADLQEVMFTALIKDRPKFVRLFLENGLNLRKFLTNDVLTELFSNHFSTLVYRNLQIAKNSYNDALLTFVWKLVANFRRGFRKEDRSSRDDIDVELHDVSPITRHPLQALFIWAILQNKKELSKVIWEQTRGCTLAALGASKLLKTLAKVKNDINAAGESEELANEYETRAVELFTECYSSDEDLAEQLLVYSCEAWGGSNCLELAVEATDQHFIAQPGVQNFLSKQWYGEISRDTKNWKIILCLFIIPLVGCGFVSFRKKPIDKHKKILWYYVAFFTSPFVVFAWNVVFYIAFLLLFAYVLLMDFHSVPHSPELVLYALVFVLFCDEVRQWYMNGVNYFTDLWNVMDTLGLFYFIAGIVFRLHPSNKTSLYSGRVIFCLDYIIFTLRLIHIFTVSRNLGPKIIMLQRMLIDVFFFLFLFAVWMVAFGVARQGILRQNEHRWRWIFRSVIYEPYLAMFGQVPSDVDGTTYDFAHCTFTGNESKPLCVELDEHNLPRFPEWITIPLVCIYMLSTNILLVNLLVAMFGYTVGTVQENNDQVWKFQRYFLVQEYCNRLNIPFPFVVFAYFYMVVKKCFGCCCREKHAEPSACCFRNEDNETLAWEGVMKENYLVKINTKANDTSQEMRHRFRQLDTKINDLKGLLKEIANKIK

Structure (SMILES) | inhibition at 0.2 µM | IC50 | % Inh (%) @ 0.2 μM (@ 0.2 μM)
CCc1c(N(Cc2ccc(C(F)(F)F)c(F)c2)S(=O)(=O)c2ccccc2)nc2c(C(F)(F)F)cccn12 [Compound 56] | 99% | 0.065 µM | 
CCc1c(N(Cc2ccc(OC(F)(F)F)cc2)S(=O)(=O)c2ccccc2)nc2c(C(F)(F)F)cccn12 [Compound 57] | 82% | 0.0966 µM | 
CCc1c(N(Cc2ccc(C(F)(F)F)cc2)S(=O)(=O)c2ccccc2)nc2c(C(F)(F)F)cccn12 [Compound 58] | 87% | 0.0715 µM | 
O=S(=O)(c1ccccc1)N(Cc1ccc(F)c(C(F)(F)F)c1)c1nc2ccc(C(F)(F)F)cn2c1Cl [Compound 62] | 56% |  | 
Cc1ccc2nc(N(Cc3ccc(C(F)(F)F)c(F)c3)S(=O)(=O)c3ccc(F)cc3)c(C)n2c1 [Compound 68] | 100% | 0.0416 µM | 
O=S(=O)(c1ccccc1)N(Cc1ccc(F)c(C(F)(F)F)c1)c1nc2ccccn2c1C1CC1 [Compound 69] |  | 0.0282 µM | 101%
O=S(=O)(c1ccccc1)N(Cc1ccc(C(F)(F)F)c(F)c1)c1nc2ccccn2c1C1CC1 [Compound 70] | 101% | 0.00821 µM | 
O=S(=O)(c1ccccc1)N(Cc1ccc(OC(F)(F)F)cc1)c1nc2ccccn2c1C1CC1 [Compound 71] | 101% | 0.0215 µM | 
O=S(=O)(c1ccccc1)N(Cc1ccc(C(F)(F)F)cc1)c1nc2ccccn2c1C1CC1 [Compound 72] | 101% | 0.0113 µM | 
O=S(=O)(c1ccc(N2CCOCC2)nc1)N(Cc1ccc(C(F)(F)F)c(F)c1)c1nc2ccc(Cl)cn2c1Cl [Compound 74] | 74% | 0.0626 µM | 
O=S(=O)(c1ccc(N2CCOCC2)nc1)N(Cc1ccc(OC(F)(F)F)cc1)c1nc2ccc(Cl)cn2c1Cl [Compound 76] | 72% | 0.0705 µM | 
O=S(=O)(c1ccc(-n2cccn2)cc1)N(Cc1ccc(OC(F)(F)F)cc1)c1nc2ccccn2c1Br [Compound 77] | 100% | 0.00227 µM | 
O=S(=O)(c1ccc(-n2cccn2)cc1)N(Cc1ccc(F)c(C(F)(F)F)c1)c1nc2ccccn2c1Br [Compound 79] | 99% | 0.00317 µM | 
CCc1c(N(Cc2ccc(C(F)(F)F)c(F)c2)S(=O)(=O)c2ccccc2)nc2cccc(C)n12 [Compound 80] | 99% | 0.0121 µM | 
CCc1c(N(Cc2ccc(OC(F)(F)F)cc2)S(=O)(=O)c2ccc(-n3cccn3)cc2)nc2ccc(Cl)cn12 [Compound 89] | 99% | 0.025 µM | 
O=S(=O)(c1ccc(N2CCOCC2)nc1)N(Cc1ccc(C(F)(F)F)c(F)c1)c1nc2ccccn2c1Cl [Compound 91] | 99% | 0.0416 µM | 
O=S(=O)(c1ccc(N2CCOCC2)nc1)N(Cc1ccc(C(F)(F)F)cc1)c1nc2ccccn2c1Cl [Compound 93] | 98% | 0.0269 µM | 
O=S(=O)(c1ccc(N2CCOCC2)nc1)N(Cc1cccc(C(F)(F)F)c1)c1nc2ccccn2c1Cl [Compound 94] | 97% | 0.0484 µM | 

More lines, main results first:

inhibition at 0.2 µM | IC50 | Structure (SMILES) | % Inh (%) @ 0.2 μM (@ 0.2 μM)
94% | 0.0334 µM | CCc1c(N(Cc2ccc(F)c(C(F)(F)F)c2)S(=O)(=O)c2ccccc2)nc2c(C(F)(F)F)cccn12 [Compound 55, N-(3-Ethyl-8-trifluoromethylimidazo[1,2-a]pyridin-2-yl)-N-(4-fluoro-3-trifluoromethylbenzyl)benzenesulfonamide] | 
97% | 0.0802 µM | CCc1c(N(Cc2cccc(C(F)(F)F)c2)S(=O)(=O)c2ccccc2)nc2c(C(F)(F)F)cccn12 [Compound 59] | 
55% |  | O=S(=O)(c1ccccc1)N(Cc1ccc(C(F)(F)F)c(F)c1)c1nc2ccc(C(F)(F)F)cn2c1Cl [Compound 60, N-(3-Chloro-6-trifluoromethylimidazo[1,2-a]pyridin-2-yl)-N-(3-fluoro-4-trifluoromethylbenzyl)benzenesulfonamide] | 
47% |  | O=S(=O)(c1ccccc1)N(Cc1ccc(OC(F)(F)F)cc1)c1nc2ccc(C(F)(F)F)cn2c1Cl [Compound 61] | 
99% | 0.0241 µM | CCc1c(N(CCC2CC2)S(=O)(=O)c2ccccc2)nc2c(C(F)(F)F)cccn12 [Compound 63, N-(2-Cyclopropylethyl)-N-(3-ethyl-8-trifluoromethylimidazo[1,2-a]pyridin-2-yl)benzenesulfonamide] | 
99% | 0.022 µM | CCc1c(N(CCCCC(F)(F)F)S(=O)(=O)c2ccccc2)nc2c(C(F)(F)F)cccn12 [Compound 64] | 
72% | 0.0628 µM | CCc1c(N(CC2CC2)S(=O)(=O)c2ccccc2)nc2c(C(F)(F)F)cccn12 [Compound 65] | 
83% |  | CCc1c(N(CCC(F)(F)F)S(=O)(=O)c2ccccc2)nc2c(C(F)(F)F)cccn12 [Compound 66] | 
96% | 0.0621 µM | Cc1ccn2c(C)c(N(Cc3ccc(OC(F)(F)F)cc3)S(=O)(=O)c3ccc(F)cc3)nc2c1 [Compound 67] | 
100% |  | O=S(=O)(c1ccccc1)N(Cc1cccc(C(F)(F)F)c1)c1nc2ccccn2c1C1CC1 [Compound 73] | 
99% | 0.00194 µM | O=S(=O)(c1ccc(-n2cccn2)cc1)N(Cc1ccc(C(F)(F)F)c(F)c1)c1nc2ccccn2c1Br [Compound 75] | 
26% |  | O=S(=O)(c1ccc(N2CCOCC2)nc1)N(Cc1ccc(F)c(C(F)(F)F)c1)c1nc2ccc(Cl)cn2c1Cl [Compound 78] | 
100% | 0.0142 µM | CCc1c(N(Cc2ccc(F)c(C(F)(F)F)c2)S(=O)(=O)c2ccccc2)nc2ccc(Cl)cn12 [Compound 82] | 
87% | 0.0746 µM | O=S(=O)(c1ccc(N2CCOCC2)nc1)N(Cc1ccccc1)c1nc2ccccn2c1Br [Compound 83] | 
100% | 0.0115 µM | O=S(=O)(c1ccc(N2CCOCC2)nc1)N(Cc1ccc(OC(F)(F)F)cc1)c1nc2ccccn2c1Br [Compound 84] | 
100% | 0.0312 µM | O=S(=O)(c1ccc(N2CCOCC2)nc1)N(Cc1ccc(C(F)(F)F)c(F)c1)c1nc2ccccn2c1Br [Compound 85] | 
99% | 0.0107 µM | O=S(=O)(c1ccc(N2CCOCC2)nc1)N(Cc1ccc(F)c(C(F)(F)F)c1)c1nc2ccccn2c1Br [Compound 86] | 
86% | 0.0863 µM | CCc1c(N(Cc2ccc(C(F)(F)F)c(F)c2)S(=O)(=O)c2ccc(N3CCOCC3)nc2)nc2ccc(Cl)cn12 [Compound 87] | 
100% | 0.0414 µM | CCc1c(N(Cc2ccc(C(F)(F)F)c(F)c2)S(=O)(=O)c2ccc(-n3cccn3)cc2)nc2ccc(Cl)cn12 [Compound 88] | 
99% | 0.0269 µM | O=S(=O)(c1ccc(N2CCOCC2)nc1)N(Cc1ccc(F)c(C(F)(F)F)c1)c1nc2ccccn2c1Cl [Compound 90, N-(3-Chloroimidazo[1,2-a]pyridin-2-yl)-N-(4-fluoro-3-trifluoromethylbenzyl)-6-morpholin-4-yl-pyridine-3-sulfonamide] | 
99% | 0.025 µM | O=S(=O)(c1ccc(N2CCOCC2)nc1)N(Cc1ccc(OC(F)(F)F)cc1)c1nc2ccccn2c1Cl [Compound 92] | 
